≈ marks a conversion by molar mass, not a printed value. Like-named read-outs stand apart in the source and are kept apart here.
Tests used:
Thermodynamic solubility = type: physicochemical; conditions: thermodynamic from solid
Method: Thermodynamic solubility for the compounds of the invention listed in Table C is measured by a published literature procedure, e.g., Liping Zhou, et al., J. Pharm. Sci. (2007) 96(11): 3052-3071.
The DMSO stocks of test compounds previously dissolved in 25 μL of DMSO (˜10 mM) in mini-prep vial (MPV: Whatman, with PVDF filter and 0.45 μm pore size) chamber were evaporated via a GeneVac HT-4X evaporator for approximately 1 hour, at the guard temperature of 30° C. An aliquot of 250 μL buffer solution (pH 1.0 or 6.8) was added into each MPV chamber containing powders reconstituted from DMSO stock solutions. The MPV filter plungers were pushed down into the chamber until the membrane of the filter plunger slightly touched the surface of the buffer to promote equilibrium between the two compartments and to minimize the adsorption due to non-specific binding of samples during the subsequent 24-hr incubation (at 600 RPM at room temperature). Immediately after the 24-hr incubation, the plungers were further pushed down to the bottom of the chambers. More solution was pushed through the membrane and entered the plunger compartment. The filter/chamber assemblies were then put on a shaker for another 30 minutes at 600 RPM. Afterwards, filtrates were further diluted (1:10) with 50/50 acetonitrile/water solvent followed by a thorough mixing process. Both plates with diluted and undiluted filtrates were analyzed by HPLC and quantified against the four-point standard dilution curve of the same test compound (5 μM, 35 μM, 65 μM and 100 μM, respectively). In the current study, solubility reflects the average of triplicate samples tested at each pH.

[1] = Pharmacokinetic profile in rats; set-up: species or system Sprague Dawley rats; conditions: rat, in vivo; for Cmax: Sprague Dawley; for Cmax / AUC: po, 10 mg/kg
Method: Compounds listed in Table D are administered as a solution orally via gavage at 10 mg/kg to Sprague Dawley rats at a dosing volume of 10 ml/kg. Samples are collected via a surgically implanted cannula at selected timepoints deemed necessary to characterize pharmacokinetic parameters. Blood samples are placed on wet ice and spun down to plasma within 5 minutes of timepoint collection. Plasma samples are frozen until bioanalytical analysis. Compounds listed in Table D are administered intravenously into a surgically implanted cannula as a solution at 1 mg/kg to Sprague Dawley rats at a dosing volume of 1 ml/kg. Samples are collected via another surgically implanted cannula at selected timepoints deemed necessary to characterize pharmacokinetic parameters. Blood samples are placed on wet ice and spun down to plasma within 5 minutes of timepoint collection. Plasma samples are frozen until bioanalytical analysis.

HCV = conditions: ribavirin alone; cited from earlier work

CCCC(NC(=O)[C@@H]1C[C@@]2(CN1C(=O)[C@@H](NC(=O)[C@@H](NC(=O)[C@@H]1CCCN(C(C)C)C1)C1CCCCC1)C(C)(C)C)C(C)(C)C21CCC1)C(=O)C(=O)NC1CC1 (stereo in doubt) [Compound A-4]
solubility at 24 h (Thermodynamic solubility; pH 1, simulated gastric fluid): 630 µM (≈ 492 µg/mL)
solubility at 24 h (Thermodynamic solubility; pH 6.8, aqueous buffer): 200 µM (≈ 156 µg/mL)

CCC[C@H](NC(=O)[C@@H]1C[C@@]2(CN1C(=O)[C@@H](NC(=O)[C@@H](NC(=O)[C@H]1CCCCN1C(C)C)C1CCCCC1)C(C)(C)C)C(C)(C)C21CCC1)C(=O)C(=O)NC1CC1 [Compound A-5]
solubility at 24 h (Thermodynamic solubility; pH 1, simulated gastric fluid): 480 µM (≈ 375 µg/mL)
solubility at 24 h (Thermodynamic solubility; pH 6.8, aqueous buffer): 44 µM (≈ 34.4 µg/mL)

CCC[C@H](NC(=O)[C@@H]1C[C@@]2(CN1C(=O)[C@@H](NC(=O)[C@@H](NC(=O)[C@@H]1CCCCN1C(C)C)C1CCCCC1)C(C)(C)C)C(C)(C)C21CCC1)C(=O)C(=O)NC1CC1 [Compound A-6]
solubility at 24 h (Thermodynamic solubility; pH 1, simulated gastric fluid): 930 µM (≈ 726 µg/mL)
solubility at 24 h (Thermodynamic solubility; pH 6.8, aqueous buffer): < 5 µM

C=C[C@@H]1C[C@]1(NC(=O)[C@@H]1C[C@@]2(CN1C(=O)[C@@H](NC(=O)[C@@H](NC(=O)[C@@H]1CCCCN1C(C)C)C(C)(C)C)C(C)(C)C)C(C)(C)C21CCC1)C(=O)NS(=O)(=O)C1CC1 [Compound A-7]
solubility at 24 h (Thermodynamic solubility; aqueous buffer, thermodynamic solubility, buffer pH 6.8, 24-hr incubation at room temperature, read-out: Solubility (pH 6.8)): 840 µM (≈ 673 µg/mL)
solubility at 24 h (Thermodynamic solubility; simulated gastric fluid, thermodynamic solubility, buffer pH 1.0, 24-hr incubation at room temperature, read-out: Solubility (pH 1)): 900 µM (≈ 721 µg/mL)

CCC[C@H](NC(=O)C1C[C@@]2(CN1C(=O)[C@@H](NC(=O)[C@@H](NC(=O)[C@@H]1CCCN1CC)C1CCCCC1)C(C)(C)C)C(C)(C)C21CCC1)C(=O)C(=O)NC1CC1 (stereo partly shown) [Compound A-10]
solubility at 24 h (Thermodynamic solubility; pH 1, simulated gastric fluid): 910 µM (≈ 685 µg/mL)
solubility at 24 h (Thermodynamic solubility; pH 6.8, aqueous buffer): 24 µM (≈ 18.1 µg/mL)
Cmax [1]: 1470 nM
Bioavailability [1]: 46 % F
AUC [1]: 460 nM·h/mg/kg

CCC[C@H](NC(=O)C1C[C@@]2(CN1C(=O)[C@@H](NC(=O)[C@@H](NC(=O)[C@H]1CCCN1CC)C1CCCCC1)C(C)(C)C)C(C)(C)C21CCC1)C(=O)C(=O)NC1CC1 (stereo partly shown) [Compound A-11]
solubility at 24 h (Thermodynamic solubility; pH 1, simulated gastric fluid): 870 µM (≈ 655 µg/mL)
solubility at 24 h (Thermodynamic solubility; pH 6.8, aqueous buffer): 92 µM (≈ 69.3 µg/mL)

CCC[C@H](NC(=O)[C@@H]1C[C@@]2(CN1C(=O)[C@@H](NC(=O)[C@@H](NC(=O)[C@@H]1CCCN(CC)C1)C1CCCCC1)C(C)(C)C)C(C)(C)C21CCC1)C(=O)C(=O)NC1CC1 [Compound A-15]
solubility at 24 h (Thermodynamic solubility; pH 1, simulated gastric fluid): 700 µM (≈ 537 µg/mL)
solubility at 24 h (Thermodynamic solubility; pH 6.8, aqueous buffer): 170 µM (≈ 130 µg/mL)
Cmax [1]: 2030 nM
Bioavailability [1]: 42 % F
AUC [1]: 474 nM·h/mg/kg

CCC[C@H](NC(=O)[C@@H]1C[C@@]2(CN1C(=O)[C@@H](NC(=O)[C@@H](NC(=O)[C@@H]1CCCN1C)C1CCCCC1)C(C)(C)C)C(C)(C)C21CCC1)C(=O)C(=O)NC1CC1 [Compound A-33]
solubility at 24 h (Thermodynamic solubility; pH 1, simulated gastric fluid): 790 µM (≈ 584 µg/mL)
solubility at 24 h (Thermodynamic solubility; pH 6.8, aqueous buffer): 110 µM (≈ 81.3 µg/mL)

CCC[C@H](NC(=O)[C@@H]1C[C@@]2(CN1C(=O)[C@@H](NC(=O)[C@@H](NC(=O)[C@@H]1CN(C)CCN1C(C)C)C1CCCCC1)C(C)(C)C)C(C)(C)C21CCC1)C(=O)C(=O)NC1CC1 [Compound A-43]
solubility at 24 h (Thermodynamic solubility; pH 1, simulated gastric fluid): 640 µM (≈ 510 µg/mL)
solubility at 24 h (Thermodynamic solubility; pH 6.8, aqueous buffer): 290 µM (≈ 231 µg/mL)

CCC[C@H](NC(=O)[C@@H]1C[C@@]2(CN1C(=O)[C@@H](NC(=O)[C@@H](NC(=O)[C@@H]1CCCCN1C(C)C)C(C)(C)C)C(C)(C)C)C(C)(C)C21CCC1)C(=O)C(=O)NC1CC1 [Compound A-44]
solubility at 24 h (Thermodynamic solubility; pH 1, simulated gastric fluid): 690 µM (≈ 521 µg/mL)
solubility at 24 h (Thermodynamic solubility; pH 6.8, aqueous buffer): 64 µM (≈ 48.3 µg/mL)
Cmax [1]: 1110 nM
Bioavailability [1]: 43 % F
AUC [1]: 523 nM·h/mg/kg

CCC[C@H](NC(=O)[C@@H]1C[C@@]2(CN1C(=O)[C@@H](NC(=O)[C@@H](NC(=O)[C@@H]1CCCCN1C(C)C)C(C)(C)C)C1CCCCC1)C(C)(C)C21CCC1)C(=O)C(=O)NC1CC1 [Compound A-45]
solubility at 24 h (Thermodynamic solubility; pH 1, simulated gastric fluid): 720 µM (≈ 562 µg/mL)
solubility at 24 h (Thermodynamic solubility; pH 6.8, aqueous buffer): < 5 µM

CCC[C@H](NC(=O)[C@@H]1C[C@@]2(CN1C(=O)[C@@H](NC(=O)[C@@H](NC(=O)[C@@H]1CCCN(C)C1)C1CCCCC1)C(C)(C)C)C(C)(C)C21CCC1)C(=O)C(=O)NC1CC1 [Compound A-50]
solubility at 24 h (Thermodynamic solubility; pH 1, simulated gastric fluid): 830 µM (≈ 625 µg/mL)
solubility at 24 h (Thermodynamic solubility; pH 6.8, aqueous buffer): 240 µM (≈ 181 µg/mL)

CCC[C@H](NC(=O)[C@@H]1C[C@@]2(CN1C(=O)[C@@H](NC(=O)[C@@H](NC(=O)[C@@H]1CCCCN1C(C)C)C1CCCCC1)C(C)(C)C)C(C)(C)C21CCC1)C(=O)C(=O)NC(C)C [Compound A-54]
solubility at 24 h (Thermodynamic solubility; pH 1, simulated gastric fluid): 790 µM (≈ 619 µg/mL)
solubility at 24 h (Thermodynamic solubility; pH 6.8, aqueous buffer): 28 µM (≈ 21.9 µg/mL)
Cmax [1]: 1430 nM
Bioavailability [1]: 28 % F
AUC [1]: 416 nM·h/mg/kg

CCC[C@H](NC(=O)[C@@H]1C[C@@]2(CN1C(=O)[C@@H](NC(=O)[C@@H](NC(=O)[C@@H]1CCCN(C)C1)C(C)(C)C)C(C)(C)C)C(C)(C)C21CCC1)C(=O)C(=O)NC1CC1 [Compound A-58]
solubility at 24 h (Thermodynamic solubility; pH 1, simulated gastric fluid): 960 µM (≈ 698 µg/mL)
solubility at 24 h (Thermodynamic solubility; pH 6.8, aqueous buffer): 930 µM (≈ 676 µg/mL)

CCC[C@H](NC(=O)[C@@H]1C[C@@]2(CN1C(=O)[C@@H](NC(=O)[C@@H](NC(=O)[C@H]1CCCN(CC)C1)C(C)(C)C)C(C)(C)C)C(C)(C)C21CCC1)C(=O)C(=O)NC1CC1 [Compound A-59]
solubility at 24 h (Thermodynamic solubility; pH 1, simulated gastric fluid): 840 µM (≈ 622 µg/mL)
solubility at 24 h (Thermodynamic solubility; pH 6.8, aqueous buffer): 550 µM (≈ 408 µg/mL)
Cmax [1]: 653 nM
AUC [1]: 203 nM·h/mg/kg

CCC[C@H](NC(=O)[C@@H]1C[C@@]2(CN1C(=O)[C@@H](NC(=O)[C@@H](NC(=O)[C@@H]1CCN1C(C)C)C1CCCCC1)C(C)(C)C)C(C)(C)C21CCC1)C(=O)C(=O)NC1CC1 [Compound A-62]
solubility at 24 h (Thermodynamic solubility; pH 1, simulated gastric fluid): 930 µM (≈ 700 µg/mL)
solubility at 24 h (Thermodynamic solubility; pH 6.8, aqueous buffer): < 5 µM
Cmax [1]: 796 nM
Bioavailability [1]: 36 % F
AUC [1]: 241 nM·h/mg/kg

CCCC(NC(=O)[C@@H]1C[C@@]2(CN1C(=O)[C@@H](NC(=O)[C@@H](NC(=O)C1CCN1C(C)(C)C)C1CCCCC1)C(C)(C)C)C(C)(C)C21CCC1)C(=O)C(=O)NC1CC1 (stereo partly shown) [Compound A-64]
solubility at 24 h (Thermodynamic solubility; pH 1, simulated gastric fluid): 710 µM (≈ 545 µg/mL)
solubility at 24 h (Thermodynamic solubility; pH 6.8, aqueous buffer): < 85 µM
Cmax [1]: 904 nM
AUC [1]: 274 nM·h/mg/kg

CCC[C@H](NC(=O)[C@@H]1C[C@@]2(CN1C(=O)[C@@H](NC(=O)[C@@H](NC(=O)[C@@H]1CCCN(C)C1)C(C)(C)C)C1CCCCC1)C(C)(C)C21CCC1)C(=O)C(=O)NC1CC1 [Compound A-66]
solubility at 24 h (Thermodynamic solubility; pH 1, simulated gastric fluid): 840 µM (≈ 633 µg/mL)
solubility at 24 h (Thermodynamic solubility; pH 6.8, aqueous buffer): 600 µM (≈ 452 µg/mL)

CCC[C@H](NC(=O)[C@@H]1C[C@@]2(CN1C(=O)[C@@H](NC(=O)[C@@H](NC(=O)[C@H]1CCCN(C)C1)C(C)(C)C)C1CCCCC1)C(C)(C)C21CCC1)C(=O)C(=O)NC1CC1 [Compound A-67]
solubility at 24 h (Thermodynamic solubility; pH 1, simulated gastric fluid): 740 µM (≈ 557 µg/mL)
solubility at 24 h (Thermodynamic solubility; pH 6.8, aqueous buffer): 690 µM (≈ 520 µg/mL)

CCC[C@H](NC(=O)[C@@H]1C[C@@]2(CN1C(=O)[C@@H](NC(=O)[C@@H](NC(=O)[C@H]1CCCCN1CC)C(C)(C)C)C(C)(C)C)C(C)(C)C21CCC1)C(=O)C(=O)NC1CC1 [Compound A-72]
solubility at 24 h (Thermodynamic solubility; pH 1, simulated gastric fluid): 840 µM (≈ 622 µg/mL)
solubility at 24 h (Thermodynamic solubility; pH 6.8, aqueous buffer): 340 µM (≈ 252 µg/mL)

CCC[C@H](NC(=O)[C@@H]1C[C@@]2(CN1C(=O)[C@@H](NC(=O)[C@@H](NC(=O)[C@@H]1CCN1C(C)C)C(C)(C)C)C(C)(C)C)C(C)(C)C21CCC1)C(=O)C(=O)NC1CC1 [Compound A-73]
solubility at 24 h (Thermodynamic solubility; pH 1, simulated gastric fluid): 810 µM (≈ 589 µg/mL)
solubility at 24 h (Thermodynamic solubility; pH 6.8, aqueous buffer): < 5 µM

CCC[C@H](NC(=O)[C@@H]1C[C@@]2(CN1C(=O)[C@@H](NC(=O)[C@@H](NC(=O)[C@@H]1CCCCN1C(C)C)C(C)(C)C)C(C)(C)C)C(C)(C)C21CCC1)C(=O)C(=O)NC1CCC1 [Compound A-82]
solubility at 24 h (Thermodynamic solubility; pH 1, simulated gastric fluid): 830 µM (≈ 638 µg/mL)
solubility at 24 h (Thermodynamic solubility; pH 6.8, aqueous buffer): < 5 µM

NC(=O)c1ncn([C@@H]2O[C@H](CO)[C@@H](O)[C@H]2O)n1 [Ribavirin, 1-β-D-ribofuranosyl-1-1,2,4-triazole-3-caroxamide]
patients in whom serum amino transferase levels are reduced to normal (HCV): 40%

Source: patent US8222425B2, “Organic compounds and their uses” (Novartis AG, priority 2007, dated 2012)
